Assay results taken from US12214009B2, “Compositions and methods for improving bruising and rejuvenating skin” (Alastin Skincare, Inc., priority 2019, dated 2025).

Legend:
[1] = Penetration ability log Kow; format: physicochemical
Description: A water suspension of liposomes was prepared with 1.5% of hydrophilic molecule A or 300 ppm (0.03%) hydrophilic molecule B, and 27% Pro-Lipo™ Neo. […] Molecule B was a hexapeptide (hexapeptide-38) with a molecular weight of (870 g/mol) and a penetration ability log Kow of −1.13. A water solution with 1.5% A or 300 ppm B was used as a control (non-entrapped molecule).

[2] = system: macrophages (RAW-Difluo mLC3 autophagy reporter cells) phagocytosing human red blood cells; assay: Macrophage phagocytosis of red blood cells (heme absorbance); format: cell-based; conditions: FIG. 6; 24 h; peptide alone; tripeptide-1 2.9 ug/mL, hexapeptide-11 100 ug/mL, hexapeptide-12 2.9 ug/mL
Description: The assay was performed according to manufacturer's instructions (Cell BioLabs, Inc.). Macrophages used were RAW-Difluo mLC3 autophagy reporter cells. Human red blood cells (RBCs) were obtained from ZenBio (catalog number SER-10MLRBC). Briefly, 24 hours before the assay, macrophages were plated on 96-well plates. One plate was plated with 12,500 macrophages and a second plate with 25,000 macrophages. The day of the assay, human red blood cells (RBCs) were opsonized with human RBC antibody. As a negative control, sheep RBCs were opsonized with human RBC antibody. The media was then replaced with either peptide or no peptide. Blood was added to the plates at a 200:1 RBC to macrophage ratio. Phagocytosis was measured beginning at 2 hours after blood was added. The media and blood were removed from the wells of the plate. The plate was washed once with RBC lysis buffer to remove non-phagocytosed RBCs followed by two washes with PBS. Macrophage lysis buffer was then added to the plate and the lysed solution was transferred to a 96-well plate. The substrate solution to detect heme was added to the 96-well plate and absorbance was recorded at 1 minute, 5 minutes, 10, minutes, and 20 minutes. FIGS. 1B-1C show images of macrophage phagocytosis prior to red blood cell (RBC) washout (FIG. 1B) and after RBC washout (FIG. 1C). Arrows indicate macrophages with RBCs (hollow circles). […]

[3] = system: dermal and epidermal hyaluronic acid level; conditions: ex vivo human skin model; cited from earlier work

Cn1c(=O)c2c(ncn2C)n(C)c1=O [Molecule A, caffeine]
penetration ability log Kow [1]: −0.07

hexapeptide-11
phagocytosis relative to NT control [2]: decrease or no change

CCCCCCCC(=O)CCc1ccc(O)c(OC)c1 [Hydroxymethoxyphenyl decanone]
stimulation of dermal hyaluronic acid level versus placebo [3]: 259% | stimulation of epidermal hyaluronic acid level versus placebo [3]: 198%

tripeptide-1
phagocytosis relative to NT control [2]: decrease or no change
